Read-outs that look alike come from different tables or passages of the source.
Tests used:
nitrate/nitrite = assay: Nitrate/nitrite concentration in the cecal mucus of DSS-treated mice; assay type: in vivo; conditions: AG in drinking water
Text: Bars represent geometric means±standard error. *, P<0.05; **, P<0.01.
To determine whether the availability of nitrate increases during DSS colitis, the concentration of nitrate/nitrite in the colonic mucus of mock-treated and DSS-treated mice was examined. […] The results supported the idea that the inflammatory host response generates respiratory electron acceptors in the large bowel.
(§1) Since the fitness advantage conferred by nitrate respiration was abrogated in Nos2-deficent mice (FIG. 2), the ability of inhibiting nitrate respiration in vivo was tested by supplementing the drinking water of mice with the iNOS inhibitor aminoguanidine (AG).

[1] = system: E. coli Nissle 1917 and narG napA narZ mutant; assay: Competitive infection of DSS-treated mice with E. coli Nissle 1917 and its nitrate respiration-deficient mutant; assay type: in vivo; conditions: AG in drinking water, five days after infection
Experimental: Mice were mock-treated or treated with dextran sulfate sodium (DSS) or DSS+aminoguanidine (AG) and infected with equal mixtures of the indicated E. coli strains. Five days after infection, the ratio of wild-type (wt) and mutant recovered from colon contents was determined (competitive index). Bars represent geometric means±standard error.
Next, mock-treated mice (C57BL/6) or mice with DSS-induced colitis were inoculated with an equal mixture of E. coli Nissle 1917 and its isogenic nitrate respiration-deficient mutant (competitive infection design). Wild type and nitrate respiration-deficient mutant strains colonized the intestine of normal mice poorly, but similar numbers of each strain were recovered from colon contents (FIG. 2). […] Thus, nitrate respiration enhanced the fitness of E. coli in the inflamed gut.
as §1

[2] = Inflammation and morbidity in DSS-treated mice infected with LF82; assay type: in vivo, mice (C57BL/6); conditions: AG or tungstate in water, NAC in chow
Experimental: The development of intestinal inflammation can be followed as described below. The severity of inflammatory changes in the cecum and the colon are assessed by several independent approaches at three, five and seven days after inoculation. First, the relative transcript levels of genes encoding neutrophil chemoattractants (i.e., genes encoding the CXC-chemokines Kc and the Mip2) and iNOS (Nos2) are determined (see, e.g., 62, 64). Second, to monitor, on the protein level, how inflammatory markers increase after DSS treatment, expression levels of iNOS and myeloperoxidase (MPO) are analyzed in protein samples extracted from the colonic mucosa by Western blot using anti-iNOS antibodies (Abcam), anti-MPO antibodies (R&D systems), and anti-tubulin as a loading control (64). Third, concentrations of the neutrophil-specific enzyme MPO in fecal pellets are measured by ELISA. This can serve as an indicator for the degree of neutrophil transmigration into the intestinal lumen over time (6, 42). Finally, pathological changes in the colonic mucosa are assessed through standardized, blinded scoring of formalin-fixed, hematoxylin and eosin-stained sections by a veterinary pathologist (64).

nitrate reductase = assay: Nitrate reductase activity in E. coli Nissle 1917 cultures (modified Griess assay); assay type: cell-based; conditions: LB broth with 40 mM nitrate, microaerobic, 3 h at 37° C.; versus mock-treated cultures
Text: In E. coli, the respiratory reductases for nitrate, DMSO and TMAO as well as the formate dehydrogenases FdnG and FdoG contain molybdenum (Mo) as a key catalyst for electron transfer reactions (7). The functions of FdnG and FdoG are linked to respiration, because these two formate dehydrogenases couple respiratory electron acceptors to the electron donor formate, a fermentation end product present in the large intestine. Formate dehydrogenases and respiratory reductases contain Mo within a molybdopterin cofactor. Tungsten (W) has chemical properties similar, but not identical, to Mo. […] To test whether the addition of W (as the soluble sodium salt Na2WO4; sodium tungstate) to bacterial growth media can inhibit anaerobic nitrate respiration, aliquots of LB broth supplemented with 40 mM nitrate and varying concentrations of tungstate were inoculated with the E. coli Nissle 1917 wild-type strain and incubated under microaerobic conditions for 3 h at 37° C. (3). Nitrate reductase activity was assayed using a modified Griess assay (9) (FIG. 9).

[3] = system: E. coli Nissle 1917 wild-type and moaA mutant; assay: DSS colitis model, colonization with E. coli indicator strains (wild-type and moaA mutant, 1:1); assay type: in vivo
Text: (§2) To determine whether the administration of soluble tungsten (W) salts can abolish anaerobic respiration and thus blunt the bloom of Enterobacteriaceae in vivo, a murine model of chemically-induced colitis, the dextran sulfate sodium (DSS) colitis model, was employed. Oral administration of DSS in the drinking water induces a vigorous intestinal inflammatory response that is accompanied by a bloom of commensal Enterobacteriaceae (3). Groups of C57BL/6 mice received DSS-supplemented (2 or 3%) drinking water or received DSS-supplemented (2 or 3%) drinking water with sodium tungstate (0.2%) added. After onset of inflammation (4 days after start of the treatment), mice were intragastrically inoculated with a 1:1 mixture of the E. coli Nissle 1917 wild-type and an isogenic moaA mutant deficient for molybdopterin cofactor biosynthesis. Utilization of these non-pathogenic indicator strains allows a determination of the growth advantage conferred through anaerobic respiration by comparing colonization with the wild-type strain with an anaerobic respiration-deficient mutant (moaA mutant) (3). 5 days after inoculation of mice, animals were euthanized and colonization with the E. coli indicator strains determined by cultivation on selective media (each of the strains is marked with a different antibiotic resistance gene) (FIG. 10).
To further test the efficacy of tungstate treatment, E. coli indicator strains that were either proficient for anaerobic respiration (E. coli Nissle 1917 wild-type) or deficient for nitrate respiration, DMSO respiration, and TMAO respiration due to a mutation in one of the molybdopterin cofactor biosynthesis genes (E. coli Nissle 1917 moaA mutant) were used. Groups of mice with DSS-induced colitis were inoculated with an equal mixture of both E. coli indicator strains (i.e., wild-type and moaA mutant) and received either regular water (vehicle control) or drinking water containing 2 g/l sodium tungstate (Na2WO4×2H2O; Sigma-Aldrich, St. Louis, Mo., USA) to receive a calculated average dose of 130 mg/kg/day (assuming 2.6 ml of water intake per day for each animal). These experiments determined whether anaerobic respiration would provide a fitness advantage upon the E. coli wild-type over the moaA mutant in the inflamed intestine of DSS-treated mice. Furthermore, if tungstate treatment would inhibit anaerobic respiration, these experiments determined whether this fitness advantage would be eliminated and both strains would be recovered at a 1:1 ratio. In other words, the use of E. coli indicator strains as described herein enabled the determination of whether tungstate treatment would block growth by anaerobic respiration in vivo.

[4] = Body weight in the DSS-colitis model; assay type: in vivo, C57BL/6 mice; conditions: 3% DSS, tungstate 0.2% in drinking water, after 8 days of DSS treatment
Text: as §2, with “10). […]” for “10).”

[5] = Histopathology score of the cecum in DSS-treated conventional mice; assay type: in vivo; conditions: 4% DSS for 9 days, blinded scoring
Text: (§3) (13A-C) Conventional mice received 4% DSS alone (DSS) or in combination with sodium tungstate (DSS+Na2WO4) for 9 days. (13D) Germ-free mice received 1% DSS or 1% DSS+Na2WO4 for five days. (13A) Average histopathology score from the cecum.
(§4) This reduction was remarkable, because DSS treatment induces cecal inflammation by a mechanism that is only partially dependent on the presence of microbiota (10). In other words, DSS treatment causes inflammation in germ-free mice, but inflammation is exacerbated by the presence of microbiota. Thus, by inhibiting the microbiota-dependent component of inflammation, one can only expect to achieve a reduction in inflammation, but not a resolution of inflammation. Thus, given the marked pathology observed in DSS-treated germ-free mice (10), the reduction of cecal pathology after tungsten treatment was remarkable.

Tnfa = Tnfa transcript levels in the cecal mucosa of DSS-treated mice (real-time PCR); assay type: in vivo; conditions: conventional mice, 4% DSS for 9 days
Text: as §3, §4

Kc [6] = assay: Kc transcript levels in the cecal mucosa of DSS-treated conventional mice (real-time PCR); assay type: in vivo; conditions: 4% DSS for 9 days
Text: as §3, §4

Kc [7] = assay: Kc transcript levels in the cecal mucosa of DSS-treated germ-free mice; assay type: in vivo; conditions: 1% DSS, 5 days after the beginning of DSS treatment
Experimental: as §3
The key experiment to distinguish between these two possibilities is to test whether tungstate treatment reduces inflammation in germ-free mice. To this end, groups of four germ-free mice were treated with 1% DSS, 1% DSS+sodium tungstate, or drinking water without supplementation.

[8] = system: facultative anaerobic bacteria; assay: Microbial community profiling in mouse colitis models (16S rRNA gene sequences); assay type: in vivo; conditions: mice with severe colitis (DSS or oxazolone) treated with tungstate
Text: To investigate whether changes in the microbial communities that develop during inflammation are due to anaerobic respiration, the temporal dynamics of the entire gut community can be monitored in mouse models of colitis. In particular, colitis can be induced by DSS treatment or hapten-induced (oxazolone-treatment) in wild type and Nos2-deficient mice, including those that are additionally exposed to tungstate, AG, or NAC. The experiments can be performed as follows.
Wild type mice (C57BL/6) and Nos2-deficient mice are co-housed for two weeks to reduce the variation in the microbial community structure prior to inducing inflammation. Feces are collected from all animals for DNA isolation to establish a baseline of the microbiota composition at the beginning of the experiment. Six mice from each mouse strain (C57BL/6 mice or Nos2-deficient mice) are euthanized to isolate bacterial DNA from cecal and colon contents and to establish a baseline for inflammatory host responses using the methods described above (see, Section 5). Groups of mice from each mouse strain (e.g., C57BL/6 mice or Nos2-deficient mice) are treated with 4% DSS in drinking water or are “mock-treated” (i.e., mice will receive drinking water without DSS). […]
The development of intestinal inflammation is monitored using methods described above (see, Section 5). […]

AIEC strain LF82 = conditions: DSS-treated mice infected with LF82, tungstate in water
Experimental: Groups of 6 DSS-treated mice (C57BL/6) were provided with water or water supplemented with AG or tungstate and fed regular chow or chow supplemented with NAC. Mice were then inoculated with wild-type LF82 or sterile medium (mock-infection) and organs were collected at three, five and seven days after infection.
In addition, colony forming units (CFU) of E. coli are determined by spreading homogenates of colon contents on plates containing the appropriate antibiotics (all LF82 derivatives are marked with a kanamycin resistance cassette inserted downstream of the lac operon).

[9] = oral, 100 mg twice a day for 6 weeks, cited from earlier work
neutrophils [10] = conditions: in vitro; cited from earlier work
neutrophils [11] = conditions: in vivo; cited from earlier work
[12] = sodium tungstate 0.2% in drinking water, DSS 2 or 3%, 5 days after inoculation

Row | Compound | availability of nitrate/nitrite in the large bowel (nitrate/nitrite) | fitness advantage conferred by nitrate respiration (competitive index) [1] | inflammation and morbidity [2] | tungstate concentration at which nitrate reductase activity was significantly reduced (nitrate reductase) | absolute numbers of E. coli recovered from colon contents (bloom) ([3]; DSS+Na2WO4 versus DSS alone, FIG. 12B) | competitive index (ratio of wild-type to moaA mutant) recovered from colon contents ([3]; DSS-induced colitis, drinking water with 2 g/l sodium tungstate (130 mg/kg/day)) | recovery of wild-type versus moaA mutant from colon content [3, 12] | total number of E. coli indicator strains recovered from colon content [3, 12] | body weight [4] | overall pathology score of the cecal mucosa [5] | transcript levels of Tnfa in the cecal mucosa (Tnfa) | induction of Kc in the cecal mucosa (Kc [6]) | levels of pro-inflammatory cytokines (Kc transcript) (Kc [7]) | increased abundance of facultative anaerobic bacteria associated with inflammation [8] | growth of AIEC by anaerobic respiration (AIEC strain LF82) | body weight ([9]; human obesity) | safety parameters ([9]; human) | concentration that almost completely inhibits the oxidative response of neutrophils to E. coli (neutrophils [10]) | oxidative burst activity of neutrophils (neutrophils [11])
1 | N=C(N)NN [AG, aminoguanidine] | markedly reduced | abrogated the fitness advantage | intermediate effect |  |  |  |  |  |  |  |  |  |  |  |  |  |  |  | 
2 | [Na+].[Na+].[O]=[W](=[O])([O-])[O-] [sodium tungstate] |  |  | reducing inflammation and morbidity | exceeding 10 ng/ml | prevented facultative anaerobic bacteria from blooming | both strains were recovered in equal numbers | both strains were recovered at similar numbers | significantly diminished | > 90 % of starting weight | significant (P<0.05) reduction | blunting of transcript levels | abrogated induction | did not reduce | not observed | reduction in the growth of AIEC | did not reduce body weight | not associated with abnormal safety parameters |  | 
3 | CC(=O)N[C@@H](CS)C(=O)O [NAC, N-acetylcysteine] |  |  | intermediate effect |  |  |  |  |  |  |  |  |  |  |  |  |  |  | 76 mM | suppress the oxidative burst activity

— patent publication US10092596B2, “Tungstate treatment of the dysbiosis associated with gastrointestinal inflammation” (THE REGENTS OF THE UNIVERSITY OF CALIFORNIA, priority 2013, dated 2018)
